Test results from patent US12215100B2, “Anticancer compounds” (Pharma Mar, S.A., priority 2018, dated 2025).

Assays:
Type in all cases: cell-based, human
PSN-1 = assay: SRB colorimetric cytotoxicity assay, PSN-1; conditions: pancreatic adenocarcinoma
Text: (§1) The aim of this assay is to evaluate the in vitro cytostatic (ability to delay or arrest tumor cell growth) or cytotoxic (ability to kill tumor cells) activity of the samples being tested.
(§2) A colorimetric assay, using sulforhodamine B (SRB) reaction has been adapted to provide a quantitative measurement of cell growth and viability (following the technique described by V. Vichai and K. Kirtikara (2006) Nature Protoc. 1, 1112-1116.)
(§3) This form of assay employs 96-well cell culture microplates. All the cell lines used in this study were obtained from the American Type Culture Collection (ATCC), unless otherwise indicated, and derive from different types of human cancer.
(§4) Cells were maintained in Dulbecco's Modified Eagle Medium (DMEM) (for A549, HT-29 and MDA-MB-231) or RPMI (for PSN-1) supplemented with 10% Fetal Bovine Serum (FBS), 2 mM L-glutamine, 100 U/mL penicillin and 100 U/mL streptomycin at 37° C., 5% CO2 and 98% humidity. For the experiments, cells were harvested from subconfluent cultures using trypsinization and resuspended in fresh medium before counting and plating.
(§5) Cells were seeded in 96 well microtiter plates, at 5×10^3 cells per well in aliquots of 150 μL, and allowed to attach to the plate surface for 18 hours (overnight) in drug free medium. After that, one control (untreated) plate of each cell line was fixed (as described below) and used for time zero reference value. […] After 72 hours treatment, the antitumor effect was measured by using the SRB methodology: Briefly, cells were washed twice with PBS, fixed for 15 min in 1% glutaraldehyde solution at room temperature, rinsed twice in PBS, and stained in 0.4% SRB solution for 30 min at room temperature. Cells were then rinsed several times with 1% acetic acid solution and air-dried at room temperature. SRB was then extracted in 10 mM trizma base solution and the absorbance measured in an automated spectrophotometric plate reader at 490 nm. Effects on cell growth and survival were estimated by applying the NCI algorithm (Boyd M R and Pauli K D. Drug Dev Res. 1995, 34, 91-104).
(§6) Using the mean±SD of triplicates, a dose-response curve was automatically generated using nonlinear regression analysis to a 4-parameter logistic curve. Three reference parameters were calculated (NCI algorithm) by automatic interpolation: GI50=compound concentration that produces 50% cell growth inhibition, as compared to control cultures; TGI=total cell growth inhibition (cytostatic effect), as compared to control cultures, and LC50=compound concentration that produces 50% net cell killing (cytotoxic effect).

HT29 = assay: SRB colorimetric cytotoxicity assay, HT29; conditions: colorectal adenocarcinoma
Text: as §1, §2, §3, §4, §5, §6

A549 = assay: SRB colorimetric cytotoxicity assay, A549; conditions: lung carcinoma (NSCLC)
Text: as §1, §2, §3, §4, §5, §6

MDA-MB-231 = assay: SRB colorimetric cytotoxicity assay, MDA-MB-231; conditions: breast adenocarcinoma
Text: as §1, §2, §3, §4, §5, §6

[1] = Homo sapiens, PSN1, 72 h, 72 hours treatment
[2] = Homo sapiens, HT-29, 72 h, 72 hours treatment
[3] = Homo sapiens, A549, 72 h, 72 hours treatment
[4] = Homo sapiens, MDA-MB-231, 72 h, 72 hours treatment
[5] = Homo sapiens, PSN1, 72 hours treatment
[6] = Homo sapiens, HT-29, 72 hours treatment
[7] = Homo sapiens, A549, 72 hours treatment
[8] = Homo sapiens, MDA-MB-231, 72 hours treatment

SMILES | GI50 (PSN-1; [1]) [nM] | GI50 (HT29; [2]) [nM] | GI50 (A549; [3]) [nM] | GI50 (MDA-MB-231; [4]) [nM] | other results
CCCCCCCOc1cc([C@@H](CCC)NC(=O)[C@]2(C)CSC(/C(C)=N/O)=N2)oc(=O)c1 [Compound 72] | 21.5 | 30.1 | 25.8 | 30.1 | –
C=CCOc1cc([C@@H](CCC)NC(=O)[C@]2(C)CSC(C(C)N)=N2)oc(=O)c1 (some centres unmarked) [Compound 117] | 4880 | 3490 | 3020 | 4650 | –
C=CCOc1cc([C@@H](CCC)NC(=O)[C@]2(C)CSC(/C(C)=N/O[Si](c3ccccc3)(c3ccccc3)C(C)(C)C)=N2)oc(=O)c1 [Compound 113] | – | – | – | – | GI50 (PSN-1; [5]): 14.7 nM; GI50 (HT29; [6]): 5.57 nM; GI50 (A549; [7]): 15.2 nM; GI50 (MDA-MB-231; [8]): 8.36 nM
C=CCOc1cc([C@@H](CCC)NC(=O)[C@]2(C)CSC(/C(C)=N/OCCCNC(=O)OC(C)(C)C)=N2)oc(=O)c1 [Compound 152] | 21.3 | 19.5 | 19.5 | 26.6 | –
C=CCO/N=C(\C)C1=N[C@](C)(C(=O)N[C@H](CCC)c2cc(OC)cc(=O)o2)CS1 [Compound 93] | 28.5 | 23.5 | 21.4 | 38 | –
C#CCOc1cc([C@@H](CCC)NC(=O)[C@]2(C)CSC(C(C)=O)=N2)oc(=O)c1 [Compound 64] | 71.7 | 61.5 | 99.9 | 53.8 | –
CCC[C@@H](NC(=O)[C@]1(C)CSC(/C(C)=N/OCCCNC(=O)OC(C)(C)C)=N1)c1cc(OC)cc(=O)o1 [Compound 97] | 835 | 594 | 631 | 1150 | –
C=CCOc1cc([C@@H](CCC)NC(=O)[C@]2(C)CSC(/C(C)=N/O[C@H]3O[C@H](CO)[C@@H](O)[C@@H]4OC(C)(C)O[C@H]34)=N2)oc(=O)c1 [Compound 111] | 37.7 | 24.6 | 26.2 | 29.5 | –
C=CCOc1cc([C@@H](CCC)NC(=O)[C@]2(C)CSC(/C(C)=N/OCCCN)=N2)oc(=O)c1 (stereo in doubt) [Compound 154] | – | – | – | – | GI50 (PSN-1; 72 hours treatment): 7.78 nM; GI50 (HT29; 72 hours treatment): 5.59 nM; GI50 (A549; 72 hours treatment): 4.79 nM; GI50 (MDA-MB-231; 72 hours treatment): 6.79 nM
C=CCOc1cc([C@@H](CCC)NC(=O)[C@@]2(C)CSC(C(C)(OCC)OCC)=N2)oc(=O)c1 [Compound 130] | 364 | 206 | 214 | 364 | –
CCC[C@@H](NC(=O)[C@@]1(C)CSC(/C(C)=N/O)=N1)c1cc(OCC2CC2)cc(=O)o1 [Compound 137] | 145 | 109 | 126 | 149 | –
C#CCOc1cc([C@@H](CCC)NC(=O)[C@]2(C)CSC(C(C)=NO)=N2)oc(=O)c1CC#C [Compound 141] | 338 | 178 | 225 | 248 | –
CCC[C@@H](NC(=O)[C@]1(C)CSC(/C(C)=N/OCCCS)=N1)c1cc(OC)cc(=O)o1 [Compound 151] | 1210 | 505 | 856 | 1340 | –
C#CCOc1cc([C@@H](CCC)NC(=O)[C@]2(C)CSC(/C(C)=N\O)=N2)oc(=O)c1 [Compound 75a] | 2 | 1.18 | 2.12 | 2.71 | –
CCC[C@@H](NC(=O)[C@]1(C)CSC(/C(C)=N/O[Si](c2ccccc2)(c2ccccc2)C(C)(C)C)=N1)c1cc(O)cc(=O)o1 [Compound 184] | – | – | – | – | GI50 (PSN-1; [5]): 4130 nM; GI50 (HT29; [6]): 2970 nM; GI50 (A549; [7]): 4790 nM; GI50 (MDA-MB-231; [8]): 4460 nM
C=CCOc1cc([C@@H](CCC)NC(=O)[C@]2(C)CSC(/C(C)=N/O[C@H]3O[C@H](COC(C)=O)[C@@H](OC(C)=O)[C@H](OC(C)=O)[C@H]3OC(C)=O)=N2)oc(=O)c1 [Compound 107] | 61 | 52.9 | 52.9 | 78.6 | –
CCC[C@H](NC(=O)[C@]1(C)CSC(/C(C)=N/O)=N1)c1cc(OC)cc(=O)o1 [Compound epi-1] | 5770 | 3410 | 2880 | 3930 | –
